The source of these data is patent publication US9340590B2 (priority 2011, dated 2016).

Assay in all cases: cell-based
Assay [1] deals with hNav1.7 (Homo sapiens, UniProt Q15858). It counts as cell-based. Particulars: IonWorks Quattro, read-out: IWQ Use Nav1.7. (In general: Patch clamp records ionic current or voltage across a cell membrane.)
Assay [2] concerns the target hNav1.5 (Homo sapiens, UniProt Q14524). The following applies: IonWorks Quattro, read-out: IWQ Use Nav1.5.
In assay [3] the target is hNav1.3 (Homo sapiens, UniProt Q9NY46). The following applies: IonWorks Quattro, read-out: IWQ Use Nav1.3.
Chain of hNav1.3 (Q9NY46 whole entry, looked up): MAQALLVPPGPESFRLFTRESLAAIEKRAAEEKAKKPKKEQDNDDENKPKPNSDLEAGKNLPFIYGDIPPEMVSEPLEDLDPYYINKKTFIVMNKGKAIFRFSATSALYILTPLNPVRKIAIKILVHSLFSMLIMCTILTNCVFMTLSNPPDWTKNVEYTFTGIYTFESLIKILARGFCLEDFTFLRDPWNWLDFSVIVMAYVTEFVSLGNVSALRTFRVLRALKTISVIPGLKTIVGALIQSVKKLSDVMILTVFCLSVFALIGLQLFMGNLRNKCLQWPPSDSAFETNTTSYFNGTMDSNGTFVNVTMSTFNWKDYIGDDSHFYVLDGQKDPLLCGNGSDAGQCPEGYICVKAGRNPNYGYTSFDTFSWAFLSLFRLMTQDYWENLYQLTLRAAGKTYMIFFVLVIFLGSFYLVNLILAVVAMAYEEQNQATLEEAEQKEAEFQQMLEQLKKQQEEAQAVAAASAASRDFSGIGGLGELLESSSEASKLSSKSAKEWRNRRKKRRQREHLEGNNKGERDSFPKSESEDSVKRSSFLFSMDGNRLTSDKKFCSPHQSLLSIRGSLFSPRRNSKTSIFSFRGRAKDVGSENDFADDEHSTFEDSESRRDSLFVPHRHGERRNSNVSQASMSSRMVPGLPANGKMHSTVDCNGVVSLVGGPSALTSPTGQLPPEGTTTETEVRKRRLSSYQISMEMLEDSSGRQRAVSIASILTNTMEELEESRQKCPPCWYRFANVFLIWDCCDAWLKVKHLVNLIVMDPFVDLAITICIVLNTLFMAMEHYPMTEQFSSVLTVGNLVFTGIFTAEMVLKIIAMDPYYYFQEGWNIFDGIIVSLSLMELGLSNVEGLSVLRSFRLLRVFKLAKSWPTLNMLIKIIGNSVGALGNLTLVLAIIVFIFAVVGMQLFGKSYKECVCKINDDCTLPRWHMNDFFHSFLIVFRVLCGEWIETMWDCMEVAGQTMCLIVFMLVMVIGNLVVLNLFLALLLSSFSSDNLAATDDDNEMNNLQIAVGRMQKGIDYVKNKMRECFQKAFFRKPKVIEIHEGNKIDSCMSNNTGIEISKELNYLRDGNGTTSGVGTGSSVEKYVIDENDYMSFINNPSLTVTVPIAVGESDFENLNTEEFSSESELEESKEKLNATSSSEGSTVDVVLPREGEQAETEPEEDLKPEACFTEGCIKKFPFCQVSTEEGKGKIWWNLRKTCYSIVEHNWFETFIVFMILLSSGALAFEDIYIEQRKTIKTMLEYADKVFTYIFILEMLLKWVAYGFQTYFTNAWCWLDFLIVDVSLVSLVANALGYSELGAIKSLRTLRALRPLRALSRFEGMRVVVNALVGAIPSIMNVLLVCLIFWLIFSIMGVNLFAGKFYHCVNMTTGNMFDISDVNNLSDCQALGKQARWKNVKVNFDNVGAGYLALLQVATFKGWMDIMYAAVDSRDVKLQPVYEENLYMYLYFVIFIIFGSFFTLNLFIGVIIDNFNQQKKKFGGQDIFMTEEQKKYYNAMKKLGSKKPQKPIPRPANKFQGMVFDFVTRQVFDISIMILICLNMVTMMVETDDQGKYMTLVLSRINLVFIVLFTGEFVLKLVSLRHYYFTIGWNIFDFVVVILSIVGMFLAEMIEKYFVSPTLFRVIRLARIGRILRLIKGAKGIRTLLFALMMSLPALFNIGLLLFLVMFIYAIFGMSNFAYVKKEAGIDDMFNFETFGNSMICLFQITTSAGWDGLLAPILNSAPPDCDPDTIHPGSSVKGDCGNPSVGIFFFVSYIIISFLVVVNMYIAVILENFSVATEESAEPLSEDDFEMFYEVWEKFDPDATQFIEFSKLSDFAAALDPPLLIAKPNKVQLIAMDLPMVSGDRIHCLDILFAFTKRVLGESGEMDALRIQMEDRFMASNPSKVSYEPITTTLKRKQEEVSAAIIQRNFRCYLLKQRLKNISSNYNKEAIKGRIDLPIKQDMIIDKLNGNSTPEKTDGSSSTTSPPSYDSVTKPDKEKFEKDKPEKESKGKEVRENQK
Setting [4] is: clamped to −110 mV, depolarized to −10 mV, 5 min after compound, n=2.

Molecules are shown by their SMILES. pIC50: −log10 of the molar value. Read-outs that look alike come from different tables or passages of the source. Positions of bridges follow the written chain, without caps; N, C: chain ends. Non-standard residues stand in square brackets, D forms with d. Residues, ends and D or L forms follow the SMILES beside them. 1Nal = N[C@@H](Cc1cccc2ccccc12)C(=O)O; 2Pal = N[C@@H](Cc1ccccn1)C(=O)O; Cha = N[C@@H](CC1CCCCC1)C(=O)O

Chain of hNav1.5 (Q14524 whole entry, looked up): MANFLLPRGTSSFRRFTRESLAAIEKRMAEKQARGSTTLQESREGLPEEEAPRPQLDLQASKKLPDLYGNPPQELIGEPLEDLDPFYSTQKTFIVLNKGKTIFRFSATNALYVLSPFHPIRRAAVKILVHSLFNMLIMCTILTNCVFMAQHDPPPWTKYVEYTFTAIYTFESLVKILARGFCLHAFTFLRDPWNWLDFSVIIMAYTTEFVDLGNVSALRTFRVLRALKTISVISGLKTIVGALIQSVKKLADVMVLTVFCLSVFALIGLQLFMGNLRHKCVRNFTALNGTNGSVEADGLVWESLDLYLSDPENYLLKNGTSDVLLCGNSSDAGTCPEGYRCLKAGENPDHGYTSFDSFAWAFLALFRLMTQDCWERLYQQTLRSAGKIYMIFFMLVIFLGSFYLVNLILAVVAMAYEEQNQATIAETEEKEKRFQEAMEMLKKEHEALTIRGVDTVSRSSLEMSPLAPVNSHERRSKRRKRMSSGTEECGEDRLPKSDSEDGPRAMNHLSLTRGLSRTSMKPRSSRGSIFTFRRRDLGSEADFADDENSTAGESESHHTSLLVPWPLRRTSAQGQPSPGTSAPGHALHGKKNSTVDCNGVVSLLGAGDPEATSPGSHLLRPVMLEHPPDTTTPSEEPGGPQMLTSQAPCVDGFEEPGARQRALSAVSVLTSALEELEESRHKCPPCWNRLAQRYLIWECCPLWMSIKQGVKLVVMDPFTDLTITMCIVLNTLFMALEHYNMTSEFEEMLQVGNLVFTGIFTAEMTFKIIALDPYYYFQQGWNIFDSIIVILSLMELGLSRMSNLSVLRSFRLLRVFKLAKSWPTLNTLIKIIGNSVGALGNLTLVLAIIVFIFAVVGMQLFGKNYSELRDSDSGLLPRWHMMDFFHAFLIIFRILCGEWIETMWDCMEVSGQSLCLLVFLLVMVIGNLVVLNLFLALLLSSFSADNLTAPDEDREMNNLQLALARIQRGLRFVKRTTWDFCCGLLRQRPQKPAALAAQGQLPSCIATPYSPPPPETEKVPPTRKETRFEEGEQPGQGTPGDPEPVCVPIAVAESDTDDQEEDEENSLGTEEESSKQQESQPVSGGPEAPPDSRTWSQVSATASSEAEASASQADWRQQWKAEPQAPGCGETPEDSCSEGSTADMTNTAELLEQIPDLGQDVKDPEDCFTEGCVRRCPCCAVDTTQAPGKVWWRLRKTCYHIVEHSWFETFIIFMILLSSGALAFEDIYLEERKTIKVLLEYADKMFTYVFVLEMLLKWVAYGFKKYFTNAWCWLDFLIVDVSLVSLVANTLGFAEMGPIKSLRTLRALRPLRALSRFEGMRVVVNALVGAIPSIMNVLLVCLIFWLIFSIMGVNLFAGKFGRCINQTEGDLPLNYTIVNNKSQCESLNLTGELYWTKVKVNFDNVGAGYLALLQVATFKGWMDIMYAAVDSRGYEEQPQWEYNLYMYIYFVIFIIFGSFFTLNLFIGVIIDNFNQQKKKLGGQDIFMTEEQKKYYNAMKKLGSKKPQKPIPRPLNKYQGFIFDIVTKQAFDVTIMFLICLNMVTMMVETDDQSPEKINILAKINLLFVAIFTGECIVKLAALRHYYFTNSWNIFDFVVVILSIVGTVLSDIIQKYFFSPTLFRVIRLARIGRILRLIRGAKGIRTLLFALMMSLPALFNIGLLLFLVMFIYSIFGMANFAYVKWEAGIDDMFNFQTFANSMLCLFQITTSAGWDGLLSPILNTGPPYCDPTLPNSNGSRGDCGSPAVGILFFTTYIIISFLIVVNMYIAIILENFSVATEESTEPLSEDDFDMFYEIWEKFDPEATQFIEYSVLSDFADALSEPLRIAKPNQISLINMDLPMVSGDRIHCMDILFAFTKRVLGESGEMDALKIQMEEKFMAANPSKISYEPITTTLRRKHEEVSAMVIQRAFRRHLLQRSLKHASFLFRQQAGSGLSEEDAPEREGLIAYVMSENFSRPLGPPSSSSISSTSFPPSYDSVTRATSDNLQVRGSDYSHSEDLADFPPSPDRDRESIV

For the molecule `CC[C@H](C)[C@@H]1NC(=O)[C@@H]2CSSC[C@@H]3NC(=O)[C@H](C(C)C)NC(=O)[C@H](CC(C)C)NC(=O)[C@H](CC(N)=O)NC(=O)[C@@H]4CCCN4C(=O)[C@H](CCCNC(=N)N)NC(=O)[C@H](CSSC[C@H](NC(=O)[C@@H](N)CC(=O)O)C(=O)N[C@@H](CC(C)C)C(=O)NCC(=O)N[C@@H](Cc4ccccc4)C(=O)N[C@@H](CCSC)C(=O)N[C@@H](CCCNC(=N)N)C(=O)N[C@@H](CCCCN)C(=O)N2)NC(=O)[C@H](CSSC[C@@H](C(=O)N[C@@H](CCCCN)C(=O)N[C@@H](Cc2ccc(O)cc2)C(=O)N[C@H](C(=O)N[C@@H](Cc2ccccc2)C(N)=O)C(C)C)NC(=O)[C@H](CCCNC(=N)N)NC(=O)[C@H](CCCCN)NC(=O)[C@H](Cc2cnc[nH]2)NC(=O)[C@H]([C@@H](C)O)NC(=O)[C@H](CCCNC(=N)N)NC(=O)[C@H](CO)NC3=O)NC(=O)[C@H](CCCCN)NC(=O)[C@H](CC(=O)O)NC(=O)[C@H](CC(N)=O)NC(=O)[C@H](CC(=O)O)NC(=O)[C@@H]2CCCN2C1=O` [compound 104] (H-DCLGFMRKCIPDNDKCCRPNLVCSRTHKRCKYVF-NH2; disulfide 2-17, 9-23, 16-30), the pIC50 in assay [1] (Table 24, use, […]) was 5.01; in assay [2] (Table 24, use, […]), 4.73; in assay [3] (Table 24, use, […]) it was 4.94.

Turning to `CC[C@H](C)[C@@H]1NC(=O)[C@@H]2CSSC[C@@H]3NC(=O)[C@H](C(C)C)NC(=O)[C@H](CC(C)C)NC(=O)[C@H](CC(N)=O)NC(=O)[C@@H]4CCCN4C(=O)[C@H](CCCNC(=N)N)NC(=O)[C@H](CSSC[C@H](NC(=O)[C@@H](N)CC(=O)O)C(=O)N[C@@H](CC(C)C)C(=O)NCC(=O)N[C@@H](Cc4ccccc4)C(=O)N[C@@H](CCSC)C(=O)N[C@@H](CCCNC(=N)N)C(=O)N[C@@H](CCCCN)C(=O)N2)NC(=O)[C@H](CSSC[C@@H](C(=O)N[C@@H](CCCCN)C(=O)N[C@@H](Cc2ccc(O)cc2)C(=O)N[C@@H](Cc2ccccn2)C(=O)N[C@@H](Cc2ccccc2)C(N)=O)NC(=O)[C@H](Cc2c[nH]c4ccccc24)NC(=O)[C@H](CCCCN)NC(=O)[C@H](Cc2c[nH]cn2)NC(=O)[C@H]([C@@H](C)O)NC(=O)[C@H](CCCNC(=N)N)NC(=O)[C@H](CO)NC3=O)NC(=O)[C@H](CCCCN)NC(=O)[C@H](CC(=O)O)NC(=O)[C@H](CC(N)=O)NC(=O)[C@H](CC(=O)O)NC(=O)[C@@H]2CCCN2C1=O` [compound 402] (H-DCLGFMRKCIPDNDKCCRPNLVCSRTHKWCKY[2Pal]F-NH2; disulfide 2-17, 9-23, 16-30), the pIC50 is 6.92 in assay [1] (Table 26, use, […]); 5.08 in assay [2] (Table 26, use, […]); 6.80 in assay [3] (Table 26, use, […]).

For `CC[C@H](C)[C@@H]1NC(=O)[C@@H]2CSSC[C@@H]3NC(=O)[C@H](C(C)C)NC(=O)[C@H](CC(C)C)NC(=O)[C@H](CC(N)=O)NC(=O)[C@@H]4CCCN4C(=O)[C@H](CCCNC(=N)N)NC(=O)[C@H](CSSC[C@H](NC(=O)[C@@H](N)CC(=O)O)C(=O)N[C@@H](CC(C)C)C(=O)NCC(=O)N[C@@H](Cc4ccccc4)C(=O)N[C@@H](CCSC)C(=O)N[C@@H](CCCNC(=N)N)C(=O)N[C@@H](CCCCN)C(=O)N2)NC(=O)[C@H](CSSC[C@@H](C(=O)N[C@@H](Cc2c[nH]c4ccccc24)C(=O)N[C@@H](Cc2ccc(O)cc2)C(=O)N[C@H](C(=O)N[C@@H](Cc2ccccc2)C(N)=O)C(C)C)NC(=O)[C@H](Cc2c[nH]c4ccccc24)NC(=O)[C@H](CCCCN)NC(=O)[C@H](Cc2c[nH]cn2)NC(=O)[C@H]([C@@H](C)O)NC(=O)[C@H](CCCNC(=N)N)NC(=O)[C@H](CO)NC3=O)NC(=O)[C@H](CCCCN)NC(=O)[C@H](CC(=O)O)NC(=O)[C@H](CC(N)=O)NC(=O)[C@H](CC(=O)O)NC(=O)[C@@H]2CCCN2C1=O` [compound 179] (H-DCLGFMRKCIPDNDKCCRPNLVCSRTHKWCWYVF-NH2; disulfide 2-17, 9-23, 16-30), the pIC50 in assay [1] (Table 25, use, […]) was 4.63; in assay [2] (Table 25, use, […]), 4.96; in assay [3] (Table 25, use, […]), 4.99.

On to `CC[C@H](C)[C@@H]1NC(=O)[C@@H]2CSSC[C@@H]3NC(=O)[C@H](C(C)C)NC(=O)[C@H](CC(C)C)NC(=O)[C@H](CC(N)=O)NC(=O)[C@@H]4CCCN4C(=O)[C@H](CCCNC(=N)N)NC(=O)[C@H](CSSC[C@H](NC(=O)[C@@H](N)CC(=O)O)C(=O)N[C@@H](CC(C)C)C(=O)NCC(=O)N[C@@H](C)C(=O)N[C@@H](CCSC)C(=O)N[C@@H](CCCNC(=N)N)C(=O)N[C@@H](CCCCN)C(=O)N2)NC(=O)[C@H](CSSC[C@@H](C(=O)N[C@@H](CCCCN)C(=O)N[C@@H](Cc2cccc4ccccc24)C(=O)N[C@H](C(=O)N[C@@H](Cc2ccccc2)C(N)=O)C(C)C)NC(=O)[C@H](Cc2c[nH]c4ccccc24)NC(=O)[C@H](CCCCN)NC(=O)[C@H](Cc2c[nH]cn2)NC(=O)[C@H]([C@@H](C)O)NC(=O)[C@H](CCCNC(=N)N)NC(=O)[C@H](CO)NC3=O)NC(=O)[C@H](CCCCN)NC(=O)[C@H](CC(=O)O)NC(=O)[C@H](CC(N)=O)NC(=O)[C@H](CC(=O)O)NC(=O)[C@@H]2CCCN2C1=O` [compound 254] (H-DCLGAMRKCIPDNDKCCRPNLVCSRTHKWCK[1Nal]VF-NH2; disulfide 2-17, 9-23, 16-30), for which the pIC50 in assay [1] (use-dependent block, hNav1.7) is 7.22; in assay [2] (use-dependent block, hNav1.5), 5.30; in assay [3] (use-dependent block, hNav1.3) it was 6.70.

For `CC[C@H](C)[C@@H]1NC(=O)[C@@H]2CSSC[C@@H]3NC(=O)[C@H](C(C)C)NC(=O)[C@H](CC(C)C)NC(=O)[C@H](CC(N)=O)NC(=O)[C@@H]4CCCN4C(=O)[C@H](CCCNC(=N)N)NC(=O)[C@H](CSSC[C@H](NC(=O)[C@@H](N)CC(=O)O)C(=O)N[C@@H](CC(C)C)C(=O)NCC(=O)N[C@@H](Cc4ccccc4)C(=O)N[C@@H](CCSC)C(=O)N[C@@H](CCCNC(=N)N)C(=O)N[C@@H](CCCCN)C(=O)N2)NC(=O)[C@H](CSSC[C@@H](C(=O)N[C@@H](CCCCN)C(=O)N[C@@H](Cc2ccc(O)cc2)C(=O)N[C@@H](CC2CCCCC2)C(=O)N[C@@H](Cc2ccccc2)C(N)=O)NC(=O)[C@H](Cc2c[nH]c4ccccc24)NC(=O)[C@H](CCCCN)NC(=O)[C@H](Cc2c[nH]cn2)NC(=O)[C@H]([C@@H](C)O)NC(=O)[C@H](CCCNC(=N)N)NC(=O)[C@H](CO)NC3=O)NC(=O)[C@H](CCCCN)NC(=O)[C@H](CC(=O)O)NC(=O)[C@H](CC(N)=O)NC(=O)[C@H](CC(=O)O)NC(=O)[C@@H]2CCCN2C1=O` [compound 386] (H-DCLGFMRKCIPDNDKCCRPNLVCSRTHKWCKY[Cha]F-NH2; disulfide 2-17, 9-23, 16-30), the pIC50 was 7.15 in assay [1] (Table 26, use, […]); 4.91 in assay [2] (Table 26, use, […]); 7.15 in assay [3] (Table 26, use, […]).

Consider `CC[C@H](C)[C@@H]1NC(=O)[C@@H]2CSSC[C@@H]3NC(=O)[C@H](C(C)C)NC(=O)[C@H](CC(C)C)NC(=O)[C@H](CC(N)=O)NC(=O)[C@@H]4CCCN4C(=O)[C@H](CCCNC(=N)N)NC(=O)[C@H](CSSC[C@H](NC(=O)[C@@H](N)CC(=O)O)C(=O)N[C@@H](CC(C)C)C(=O)NCC(=O)N[C@@H](Cc4ccccc4)C(=O)N[C@@H](CCSC)C(=O)N[C@@H](CCCNC(=N)N)C(=O)N[C@@H](CCCCN)C(=O)N2)NC(=O)[C@H](CSSC[C@@H](C(=O)N[C@@H](CCCCN)C(=O)N[C@@H](Cc2ccc(O)cc2)C(=O)N[C@H](C(=O)N[C@@H](Cc2ccccc2)C(N)=O)C(C)C)NC(=O)[C@H](Cc2c[nH]c4ccccc24)NC(=O)[C@H](CCCCN)NC(=O)[C@H](Cc2c[nH]cn2)NC(=O)[C@H]([C@@H](C)O)NC(=O)[C@H](CCCNC(=N)N)NC(=O)[C@H](CO)NC3=O)NC(=O)[C@H](CCCCN)NC(=O)[C@H](CC(=O)O)NC(=O)[C@H](CC(N)=O)NC(=O)CNC(=O)[C@@H]2CCCN2C1=O` [compound 194] (H-DCLGFMRKCIPGNDKCCRPNLVCSRTHKWCKYVF-NH2; disulfide 2-17, 9-23, 16-30), for which the pIC50 in assay [1] (Use) was 7.12; in assay [2] (Use), 5.06; in assay [3] (Use), 7.33.

In the case of `CC[C@H](C)[C@@H]1NC(=O)[C@@H]2CSSC[C@@H]3NC(=O)[C@H](C(C)C)NC(=O)[C@H](CC(C)C)NC(=O)[C@H](CC(N)=O)NC(=O)[C@@H]4CCCN4C(=O)[C@H](CCCNC(=N)N)NC(=O)[C@H](CSSC[C@H](NC(=O)[C@@H](N)CC(=O)O)C(=O)N[C@@H](CC(C)C)C(=O)NCC(=O)N[C@@H](Cc4ccc(O)cc4)C(=O)N[C@@H](CCSC)C(=O)N[C@@H](CCCNC(=N)N)C(=O)N[C@@H](CCCCN)C(=O)N2)NC(=O)[C@H](CSSC[C@@H](C(=O)N[C@@H](CCCCN)C(=O)N[C@@H](Cc2ccc(O)cc2)C(=O)N[C@H](C(=O)N[C@@H](Cc2ccccc2)C(N)=O)C(C)C)NC(=O)[C@H](Cc2c[nH]c4ccccc24)NC(=O)[C@H](CCCCN)NC(=O)[C@H](Cc2c[nH]cn2)NC(=O)[C@H]([C@@H](C)O)NC(=O)[C@H](CCCNC(=N)N)NC(=O)[C@H](CO)NC3=O)NC(=O)[C@H](CCCCN)NC(=O)[C@H](CC(=O)O)NC(=O)[C@H](CC(N)=O)NC(=O)[C@H](CC(=O)O)NC(=O)[C@@H]2CCCN2C1=O` [SEQ ID NO: 271] (H-DCLGYMRKCIPDNDKCCRPNLVCSRTHKWCKYVF-NH2; disulfide 2-17, 9-23, 16-30), the pIC50 is 5.84 in assay [1] (setting [4]), 4.81 in assay [2] (setting [4]) and 5.79 in assay [3] (setting [4]).
